In ChEMBL document CHEMBL5108065 (J Med Chem, 2022):
Activity calls are given as the source filed them. The rule behind the calls is not given here.

Experiments:
[1] = Lipophilicity, log D of the compound; type: physicochemical; conditions: octanol/water
[2] = Drug metabolism in Cynomolgus monkey hepatocytes assessed as (S)-6-(2-chloro-3-((6-cyclopropylpyridin-3-yl)amino)phenyl)-2-imino-6-methyltetrahydropyrimidin-4(1H)-one metabolite formation; type: ADME, cell-based, Macaca fascicularis, Hepatocyte
[3] = Drug metabolism in rat hepatocytes assessed as (S)-6-(2-chloro-3-((6-cyclopropylpyridin-3-yl)amino)phenyl)-2-imino-6-methyltetrahydropyrimidin-4(1H)-one metabolite formation; type: ADME, cell-based, Hepatocyte
[4] = AUClast in NSG mouse at 50 mg/kg, po by LC-MS/MS analysis; type: ADME, organism-based; design: time 0 - last, dose 50 mg/kg, route po; conditions: in vivo
Plasmodium falciparum [5] = assay: Antimalarial activity against blood stage Plasmodium infected in NSG mouse model assessed as parasite recrudescence by measuring parasitemia at 50 mg/kg, po measured 96 hrs by flow cytometry; type: functional, organism-based
[6] = Inhibition of Plasmodium falciparum PMV by FRET assay
[7] = Phototoxicity assessed as minimum extinction coefficient of the compound; type: toxicity
[8] = Volume of distribution at steady state in Cynomolgus monkey blood at 1 mg/kg, iv measured at 2 to 72 hrs by LC-MS/MS analysis; type: ADME, organism-based, Macaca fascicularis; conditions: whole blood, time 2-72 hrs, read-out: Vdss
[9] = Toxicity in Han Wistar rat assessed as effect on implicit times and latency at 1000 mg/kg, po administered every other day for 7 days by ERG analysis; type: organism-based; conditions: in vivo, 168 h, time 7 day
Plasmodium falciparum [10] = assay: Antimalarial activity against Plasmodium falciparum TM90C2b harbouring Pf-crt, Pf-mdrl,Pfd-hfr, Pf-cytbQ0 mutated loci assessed as inhibition of parasite growth pretreated for 48 hrs followed by [3H]-hypoxanthine addition measured after 24 hrs by scintillation counting method; type: functional, organism-based
Plasmodium falciparum [11] = assay: Antimalarial activity against ELQ300 resistant Plasmodium falciparum Dd2 harbouring pfcytB mutated loci assessed as inhibition of parasite growth pretreated for 48 hrs followed by [3H]-hypoxanthine addition measured after 24 hrs by scintillation counting method; type: functional, organism-based
[12] = Cardiotoxicity in anesthetized guinea-pig assessed as decrease in arterial blood pressure; type: toxicity, Cavia porcellus; conditions: 0.09 µM, DDE = dose-dependent effect, dose 90 nM
[13] = Genotoxicity in Han Wistar rat by micronucleus assay; type: toxicity
[14] = Genotoxicity in Han Wistar rat by ames assay; type: toxicity
Plasmepsin X = Plasmepsin X (Plasmodium falciparum (isolate 3D7), UniProt Q8IAS0); assay: Inhibition of PMX in Plasmodium falciparum 3D7 HA epitope
Sequence of Plasmepsin X (Q8IAS0 whole entry): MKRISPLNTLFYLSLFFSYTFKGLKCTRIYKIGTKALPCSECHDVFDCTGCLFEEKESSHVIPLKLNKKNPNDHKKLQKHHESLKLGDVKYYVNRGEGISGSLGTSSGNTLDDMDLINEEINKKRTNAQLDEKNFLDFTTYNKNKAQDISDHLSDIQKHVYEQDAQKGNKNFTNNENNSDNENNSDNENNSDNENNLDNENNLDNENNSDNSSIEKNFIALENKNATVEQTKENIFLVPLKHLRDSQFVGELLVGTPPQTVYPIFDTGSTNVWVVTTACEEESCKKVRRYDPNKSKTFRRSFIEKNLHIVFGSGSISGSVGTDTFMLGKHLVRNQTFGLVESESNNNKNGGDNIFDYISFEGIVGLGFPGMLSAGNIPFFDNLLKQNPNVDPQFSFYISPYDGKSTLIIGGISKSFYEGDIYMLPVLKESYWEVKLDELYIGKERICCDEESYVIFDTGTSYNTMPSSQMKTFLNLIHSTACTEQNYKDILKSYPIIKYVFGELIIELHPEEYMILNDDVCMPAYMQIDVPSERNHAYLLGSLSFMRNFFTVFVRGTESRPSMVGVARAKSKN

NIH3T3 = assay: Phototoxicity against mouse 3T3 cells by neutral red uptake assay; type: toxicity, cell-based

In the case of `C[C@H]1C[C@@H](N2C(=N)N[C@](C)(c3cccc(Nc4ccc(C5CC5)nc4)c3Cl)CC2=O)CCO1`, the logD [1] is reported as 2.5, the Drug metabolism [2] is reported as “Metabolite_Detected” and the Drug metabolism [3] is reported as “Metabolite_Detected”. The AUC [4] was 2 10^6nM, the Activity (Plasmodium falciparum [5]) was “Active” and the IC50 [6] was over 10 µM.
In the case of `C[C@H]1C[C@@H](N2C(=N)N[C@](C)(c3cccc(NC(=O)c4cccc(C#N)c4)c3Cl)CC2=O)CCO1`, the Activity [7] is reported as 2336 a.u.L/mol.cm, the Vd [8] is reported as 3.07 L/kg and the Activity [9] is reported as “Non-Toxic”. The IC50 (Plasmodium falciparum [10]) was 0.015 µM, the IC50 (Plasmodium falciparum [11]) was 0.017 µM and the Activity [12] was “Dde”. The Activity [13] was “Non-Toxic”, the Activity [14] was “Non-Toxic” and the IC50 (Plasmepsin X) was 0.007 µM. For the same compound, the Activity (NIH3T3) was “Non-Toxic”.
